Measurements taken from patent US12285013B2, “Processing method for increasing seed production rate of seed fruits of Cucumis sativus L” (Yangzhou University, priority 2023, dated 2025).

Test system: seed fruits of Cucumis sativus L.
Experiment: Soaking and dipping of female flowers of seed fruits of Cucumis sativus L. in the pollination stage
Format: in vivo
Conditions: 50 μM solution with Tween 80 10000:1, greenhouse
Method: A processing method for increasing seed production efficiency of seed fruits of Cucumis sativus L., comprising the following steps: • (1) Preparing a plant growth regulator according to a formula proportion; • Preparing a 5-azacytidine solution with a concentration of 50 μM, adding an emulsifier Tween 80 at the same time, and mixing the 5-azacytidine solution and the emulsifier Tween 80 at a proportion of 10000:1 to obtain the plant growth regulator; • (2) Selecting seed fruits of Cucumis sativus L. growing naturally in a greenhouse and reaching a pollination stage, and dipping female flowers thereof with the plant growth regulator prepared in step (1) before pollination; • (3) Picking male flowers for pollination after the female flowers are completely dry; • (4) Dipping the pollinated female flowers again; • (5) Conducting field routine cultivation management.
In step (2), the preserved solution of the prepared plant growth regulator is poured into any container, and the female flowers of the seed fruits of Cucumis sativus L. reaching a pollination stage are completely immersed in the plant growth regulator in the container for at least 5 seconds.
In step (2), in the greenhouse, the temperature is stabilized at 20° C.-35° C., the humidity is 70%-90%, the pH value of the cultivation soil is 6.5, a selected species of Cucumis sativus L. is a species of North China Cucumis sativus L. used for seed production, a row spacing for seed fruit cultivation is fixed at 75 cm, a planting distance is 25 cm, and the number of plants planted in each row is 80.
Step (3) is specifically as follows: picking male flowers blooming on the same plant, removing all petals, poking stamens of the male flowers into the female flowers after the female flowers soaked and dipped by the plant growth regulator are completely dry, and repeating the process for multiple times to increase pollination success rate.
Step (4) is specifically as follows: repeating the soaking and dipping treatment described in step (2) for successfully pollinated female flowers of Cucumis sativus L. on the third day after pollination.
In a third aspect of the present invention, a processing method for increasing seed production efficiency of seed fruits of Cucumis sativus L. is provided, which mainly comprises the following steps: • (1) Preparing a reagent. Specifically: preparing a 5-azacytidine solution with a concentration of 50 μM, adding an emulsifier Tween 80 at the same time according to a proportion of 10000:1, and preserving the reagent in a refrigerator at 4° C. • (2) Selecting seed fruits of Cucumis sativus L. growing naturally in a greenhouse and reaching a pollination stage, and dipping female flowers thereof with the reagent prepared in step (1) before pollination. […]

[1] = female flowers dipped before pollination and on the third day after

SMILES: Nc1ncn([C@@H]2O[C@H](CO)[C@@H](O)[C@H]2O)c(=O)n1 [5-azacytidine]
- fruit length of the seed fruits [1]: significantly reduced
- number of seeds of the seed fruits [1]: without affecting
- seed production efficiency of the seed fruits [1]: increased
- weight of Cucumis sativus L. (fruit weight) (female flowers treated in the pollination stage): significantly reduce
